Among the data in patent US12447153B2, “HER2 mutation inhibitors” (Array BioPharma Inc., priority 2021, dated 2025) are IC50 and efflux ratio values, retold here.

In one data set the target is EGFR (Homo sapiens (Human), UniProt P00533). Description: ErbB Enzyme Assay (HTRF KinEASE-TK), Assay 3. The class given is biochemical. On the technique in general: TR-FRET usually uses a lanthanide donor and a delayed reading to cut background.
For data set [1], the target named is ErbB2 with Exon 20 YVMA insertion (HER2-YVMA) (Homo sapiens (Human), UniProt P04626, INS775YVMA). Kind of data set: Cellular Phosphorylation Assay, Assay 4 (constitutive ErbB2 phosphorylation, NIH 3T3 cells). Type of data set: cell-based.
The target in the next data set is BCRP (Homo sapiens (Human), UniProt Q9UNQ0). Kind of data set: BCRP MDCKII efflux assay (Assay 7). The class given is in vitro ADME. Conditions: dog; efflux ratio Papp(B-A)/Papp(A-B), BCRP MDCKII cells; read-out: Assay 7 Pe Ratio. The procedure:
Assay conditions included with and without the BCRP-specific inhibitor, KO143, at a concentration of 0.3 μM to ascertain the contribution of BCRP to the efflux value of the test compound.
Final organic concentration in the assay was 1%.

The target in a further data set is MDR1 (P-gp) (Homo sapiens (Human), UniProt P08183). Kind of data set: in vitro. The note with it: pig, LLC-PK1.
The target in another data set is EGFR wild type (EGFR WT) (Homo sapiens (Human), UniProt P00533). Kind of data set: Cellular Phosphorylation Assay, Assay 5 (EGF-stimulated EGFR phosphorylation, NIH 3T3 cells). Type of data set: cell-based.
For the next data set, the target named is ErbB2 WT (Homo sapiens (Human), UniProt P04626). Description: ErbB Enzyme Assay (HTRF KinEASE-TK), Assay 2. Type of data set: biochemical.
Setting [2] is: EGF-stimulated EGFR WT phosphorylation.
[3] abbreviates: cellular ErbB2 YVMA phosphorylation.
Where [4] appears, read: cellular EGFR WT phosphorylation, EGF-stimulated.

pIC50: −log10 of the molar value.

Chain of ErbB2 WT (P04626 23-1255): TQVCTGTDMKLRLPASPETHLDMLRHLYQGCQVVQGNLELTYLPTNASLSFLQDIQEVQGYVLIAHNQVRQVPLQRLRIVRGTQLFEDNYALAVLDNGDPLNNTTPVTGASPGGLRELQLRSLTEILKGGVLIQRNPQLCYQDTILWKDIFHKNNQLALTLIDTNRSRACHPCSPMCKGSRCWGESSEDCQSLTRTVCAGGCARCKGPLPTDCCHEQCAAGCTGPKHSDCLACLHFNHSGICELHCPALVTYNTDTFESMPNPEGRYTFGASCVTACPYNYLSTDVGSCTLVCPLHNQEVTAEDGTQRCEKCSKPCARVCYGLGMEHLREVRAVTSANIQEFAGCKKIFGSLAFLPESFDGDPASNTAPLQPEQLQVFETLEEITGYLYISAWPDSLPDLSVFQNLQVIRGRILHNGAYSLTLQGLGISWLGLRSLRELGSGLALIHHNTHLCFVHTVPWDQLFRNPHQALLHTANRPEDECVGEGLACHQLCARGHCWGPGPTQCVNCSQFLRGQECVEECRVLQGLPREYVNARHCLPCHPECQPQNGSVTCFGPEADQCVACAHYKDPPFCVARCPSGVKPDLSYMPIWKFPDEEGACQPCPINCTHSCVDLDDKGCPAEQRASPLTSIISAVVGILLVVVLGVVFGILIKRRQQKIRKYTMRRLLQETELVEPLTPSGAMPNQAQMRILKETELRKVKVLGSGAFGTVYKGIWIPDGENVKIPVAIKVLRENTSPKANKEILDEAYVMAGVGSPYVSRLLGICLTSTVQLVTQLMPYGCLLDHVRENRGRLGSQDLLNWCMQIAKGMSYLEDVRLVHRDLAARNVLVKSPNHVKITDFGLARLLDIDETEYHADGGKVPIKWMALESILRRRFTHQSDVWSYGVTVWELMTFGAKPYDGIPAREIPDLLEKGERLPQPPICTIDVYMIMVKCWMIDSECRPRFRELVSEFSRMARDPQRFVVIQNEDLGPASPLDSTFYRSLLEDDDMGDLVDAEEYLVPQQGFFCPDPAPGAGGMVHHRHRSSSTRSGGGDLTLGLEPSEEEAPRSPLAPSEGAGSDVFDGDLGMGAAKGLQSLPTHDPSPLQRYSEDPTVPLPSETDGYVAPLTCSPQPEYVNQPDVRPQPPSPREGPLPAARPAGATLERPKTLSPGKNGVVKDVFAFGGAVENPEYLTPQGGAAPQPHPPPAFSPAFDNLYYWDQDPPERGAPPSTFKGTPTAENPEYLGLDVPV
Chain of ErbB2 with Exon 20 YVMA insertion (HER2-YVMA) (P04626 other isoform, or with tags, fused parts or gaps ins YVMA behind 775): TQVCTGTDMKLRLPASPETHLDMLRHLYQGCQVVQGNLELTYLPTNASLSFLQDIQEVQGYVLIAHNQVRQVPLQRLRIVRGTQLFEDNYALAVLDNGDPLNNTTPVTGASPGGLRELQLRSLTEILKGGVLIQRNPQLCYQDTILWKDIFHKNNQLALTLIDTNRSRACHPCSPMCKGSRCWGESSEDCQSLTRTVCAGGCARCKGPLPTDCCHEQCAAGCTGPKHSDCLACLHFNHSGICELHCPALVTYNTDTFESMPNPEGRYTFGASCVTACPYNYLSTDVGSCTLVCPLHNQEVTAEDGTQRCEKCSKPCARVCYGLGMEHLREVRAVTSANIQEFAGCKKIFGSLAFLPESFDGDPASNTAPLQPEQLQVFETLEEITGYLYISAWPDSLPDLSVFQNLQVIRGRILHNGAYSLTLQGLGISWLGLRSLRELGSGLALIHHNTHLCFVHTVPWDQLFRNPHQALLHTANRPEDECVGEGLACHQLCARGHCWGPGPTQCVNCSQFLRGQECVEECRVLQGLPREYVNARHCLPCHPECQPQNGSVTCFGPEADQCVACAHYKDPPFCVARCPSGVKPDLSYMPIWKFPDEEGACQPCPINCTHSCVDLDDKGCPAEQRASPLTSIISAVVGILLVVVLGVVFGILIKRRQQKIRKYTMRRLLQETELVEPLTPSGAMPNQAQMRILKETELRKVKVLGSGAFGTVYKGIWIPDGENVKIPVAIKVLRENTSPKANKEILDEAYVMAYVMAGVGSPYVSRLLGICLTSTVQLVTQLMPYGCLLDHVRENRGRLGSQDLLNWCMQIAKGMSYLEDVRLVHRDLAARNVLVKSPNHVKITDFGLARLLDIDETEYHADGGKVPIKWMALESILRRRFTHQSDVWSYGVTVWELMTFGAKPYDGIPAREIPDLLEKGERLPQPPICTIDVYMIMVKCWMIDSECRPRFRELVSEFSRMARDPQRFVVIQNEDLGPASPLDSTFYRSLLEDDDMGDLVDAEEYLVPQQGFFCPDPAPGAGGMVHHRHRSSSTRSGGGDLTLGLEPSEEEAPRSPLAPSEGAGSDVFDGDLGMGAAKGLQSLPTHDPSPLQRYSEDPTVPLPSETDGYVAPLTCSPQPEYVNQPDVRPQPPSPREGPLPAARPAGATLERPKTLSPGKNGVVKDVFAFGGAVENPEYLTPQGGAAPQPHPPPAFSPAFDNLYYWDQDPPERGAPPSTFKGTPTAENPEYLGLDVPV
Chain of EGFR wild type (EGFR WT) (P00533 25-1210): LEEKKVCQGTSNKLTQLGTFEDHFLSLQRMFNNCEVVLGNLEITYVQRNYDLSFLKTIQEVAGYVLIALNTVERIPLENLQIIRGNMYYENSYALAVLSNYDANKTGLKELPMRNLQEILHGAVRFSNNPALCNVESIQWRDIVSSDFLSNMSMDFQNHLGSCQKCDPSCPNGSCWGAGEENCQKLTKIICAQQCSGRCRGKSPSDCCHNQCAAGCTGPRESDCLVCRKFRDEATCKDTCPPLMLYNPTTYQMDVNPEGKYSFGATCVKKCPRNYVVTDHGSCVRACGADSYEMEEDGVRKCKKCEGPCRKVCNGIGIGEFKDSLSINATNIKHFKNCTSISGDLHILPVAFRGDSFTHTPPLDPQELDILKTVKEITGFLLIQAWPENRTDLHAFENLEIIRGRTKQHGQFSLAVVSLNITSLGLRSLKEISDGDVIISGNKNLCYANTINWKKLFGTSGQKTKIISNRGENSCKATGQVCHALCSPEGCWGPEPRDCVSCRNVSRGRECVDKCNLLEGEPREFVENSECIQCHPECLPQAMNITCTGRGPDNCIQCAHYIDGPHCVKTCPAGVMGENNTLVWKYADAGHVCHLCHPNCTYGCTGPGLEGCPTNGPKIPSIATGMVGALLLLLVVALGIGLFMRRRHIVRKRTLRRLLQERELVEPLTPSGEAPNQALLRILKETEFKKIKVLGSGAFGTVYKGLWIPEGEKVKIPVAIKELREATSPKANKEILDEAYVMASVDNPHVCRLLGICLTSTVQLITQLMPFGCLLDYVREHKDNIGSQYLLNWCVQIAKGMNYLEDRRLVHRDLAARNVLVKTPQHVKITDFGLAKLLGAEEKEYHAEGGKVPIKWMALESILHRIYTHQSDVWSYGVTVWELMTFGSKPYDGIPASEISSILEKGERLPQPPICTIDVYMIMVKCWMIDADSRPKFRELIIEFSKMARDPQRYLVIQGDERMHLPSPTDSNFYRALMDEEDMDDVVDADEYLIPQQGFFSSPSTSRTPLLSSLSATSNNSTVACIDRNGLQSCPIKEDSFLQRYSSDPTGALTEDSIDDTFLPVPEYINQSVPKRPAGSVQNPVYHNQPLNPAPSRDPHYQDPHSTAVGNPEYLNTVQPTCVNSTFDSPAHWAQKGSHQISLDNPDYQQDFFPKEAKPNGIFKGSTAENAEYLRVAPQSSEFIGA
Chain of EGFR (P00533 25-1210): as above
Experimental for MDR1 (P-gp): Both LLC-PK1 and MDR1 transfected LLC-PK1 cells were cultured and plated according to manufacturer's recommendations with the exception that the passage media contained only 2% fetal bovine serum so as to extend passage time out to seven days.
Both positive and negative controls were used to assess functionality of P-gp or BCRP efflux in the assays. Stock solutions for assay controls and the test article were prepared in DMSO for final test concentrations of 10 μM and 1 μM, respectively. Final organic concentration in the assay was 1%. All dosing solutions contained 10 μM lucifer yellow to monitor LLC PK1 or MDCKII cell monolayer integrity.
For the apical to basolateral determination (A to B), 75 μL of the test article in transport buffer were added to the apical side of the individual transwells and 250 μL of basolateral media, without compound or lucifer yellow, were added to each well. For the basolateral to apical determination (B to A), 250 μL of test article in transport buffer were added to each well and 75 μL transport buffer, without compound or lucifer yellow, were added to each transwell. All tests were performed in triplicate, and each compound was tested for both apical to basolateral and basolateral to apical transport. The plates were incubated for 2 hours on a Lab-Line Instruments Titer Orbital Shaker (VWR, West Chester, PA) at 50 rpm and 37° C. with 5% CO2. All culture plates were removed from the incubator, 50 μL of media were removed from the apical and basolateral portion of each well, and added to 150 μL of 1 μM labetalol in 2:1 acetonitrile (ACN): H2O, v/v.
The plates were read using a Molecular Devices (Sunnyvale, CA) Gemini Fluorometer to evaluate the lucifer yellow concentrations at excitation/emission wavelengths of 425/535 nm. These values were accepted when found to be below 2% for apical to basolateral and 5% basolateral to apical flux across the MDR1-transfected LLC-PK1 or BCRP-transfected MDCKII cell monolayers. The plates were sealed, and the contents of each well analyzed by LC MS/MS. The compound concentrations were determined from the ratio of the peak areas of the compound to the internal standard (labetalol) in comparison to the dosing solution.
The LC-MS/MS system was comprised of an HTS-PAL autosampler (Leap Technologies, Carrboro, NC), an HP1200 HPLC (Agilent, Palo Alto, CA), and a MDS Sciex 4000 Q Trap system (Applied Biosystems, Foster City, CA). […] The total run time, including re-equilibration, for a single injection was 1.2 minutes. Mass spectrometric detection of the analytes was accomplished using the ion spray positive mode. Analyte responses were measured by multiple reaction monitoring (MRM) of transitions unique to each compound (the protonated precursor ion and selected product ions for each test article and m/z 329 to m/z 162 for labetalol, the internal standard).
An efflux ratio is calculated from the mean apical to basolateral (A-B) Papp data and basolateral to apical (B-A) Papp data: Efflux ratio=Papp(B−A)/Papp(A−B)

For `C=CC(=O)N1CCN(c2ccc3ncnc(Nc4cc(C)c(Oc5ccc6c(c5)ncn6C)cc4F)c3n2)CC1(C)C` [Example 82, 1-(4-(4-((2-fluoro-5-methyl-4-((1-methyl-1H-benzo[d]imidazol-5-yl)oxy)phenyl)amino)pyrido[3,2-d]pyrimidin-6-yl)-2,2-dimethylpiperazin-1-yl)prop-2-en-1-one], the pIC50 (usually the IC50 on a negative log10 scale, so that one unit is a factor of ten) against EGFR (EGFR enzyme) was 5.14; in data set [1] (ErbB2 YVMA phosphorylation), 7.90; at EGFR wild type (EGFR WT) (setting [2]), 5.36; at ErbB2 WT (ErbB2 WT enzyme) it was 7.24. The efflux ratio at 2 h, 1 µM was found to be 3.9 at BCRP and 2 at MDR1 (P-gp).

As to `C=CC(=O)N1C[C@H](c2ccc3ncnc(Nc4ccc(Oc5ccc6c(c5)ncn6C)c(C)c4F)c3n2)CCC1(C)C` (racemic) [Example 36, 1-(5-(4-((2-fluoro-3-methyl-4-((1-methyl-1H-benzo[d]imidazol-5-yl)oxy)phenyl)amino)pyrido[3,2-d]pyrimidin-6-yl)-2,2-dimethylpiperidin-1-yl)prop-2-en-1-one], the pIC50 on EGFR (EGFR enzyme) is at most 5.00; in data set [1] (ErbB2 YVMA phosphorylation), 7.72; on EGFR wild type (EGFR WT) (setting [2]), 5.77; on ErbB2 WT (ErbB2 WT enzyme), 6.98. Moreover, the efflux ratio at 2 h, 1 µM was found to be 4.2 at BCRP and 0.8 on MDR1 (P-gp).

Regarding `C=CC(=O)N1CCN(c2ccc3ncnc(Nc4ccc(Oc5ccn6ncnc6c5)c(C)c4F)c3n2)CC1` [Example 96, 1-(4-(4-((4-([1,2,4]triazolo[1,5-a]pyridin-7-yloxy)-2-fluoro-3-methylphenyl)amino)pyrido[3,2-d]pyrimidin-6-yl)piperazin-1-yl)prop-2-en-1-one], the pIC50 against EGFR (EGFR enzyme) is 6.08; in data set [1] (ErbB2 YVMA phosphorylation), 8.17; against EGFR wild type (EGFR WT) (setting [2]), 6.27; against ErbB2 WT (ErbB2 WT enzyme) it was 7.78. Moreover, the efflux ratio at 2 h, 1 µM at BCRP is 6.1; on MDR1 (P-gp) it was 1.8.

With `C=CC(=O)N1CC[C@H]2C[C@@H](c3ccc4ncnc(Nc5cc(C)c(Oc6ccc7c(c6)ncn7C)cc5F)c4n3)C[C@H]21` (racemic) [Example 37, 1-(5-(4-((2-fluoro-5-methyl-4-((1-methyl-1H-benzo[d]imidazol-5-yl)oxy)phenyl)amino)pyrido[3,2-d]pyrimidin-6-yl)hexahydrocyclopenta[b]pyrrol-1(2H)-yl)prop-2-en-1-one], the pIC50 was at most 5.00 against EGFR (EGFR enzyme), 7.69 in data set [1] (ErbB2 YVMA phosphorylation), at most 5.30 against EGFR wild type (EGFR WT) (setting [2]) and 6.92 on ErbB2 WT (ErbB2 WT enzyme). The efflux ratio at 2 h, 1 µM on BCRP turned out to be 1.8; at MDR1 (P-gp) it was 1.5.

As for `C=CC(=O)N1C[C@H]2C[C@@H]1[C@H](c1ccc3ncnc(Nc4ccc(Oc5ccn6ncnc6c5)c(Cl)c4F)c3n1)C2` [Example 406], the pIC50 against EGFR (EGFR enzyme assay) was 6.47; in data set [1] (setting [3]), 8.03; on EGFR wild type (EGFR WT) (setting [4]), 6.13; against ErbB2 WT (ErbB2 WT enzyme assay), 8.06. The results for the efflux ratio at 2 h, 1 µM on BCRP and on MDR1 (P-gp) were 4.3 and 0.9, respectively.

Regarding `C=CC(=O)N1C[C@H]2C[C@H](c3ccc4ncnc(Nc5ccc(Oc6ccn7ncnc7c6)c(Cl)c5F)c4n3)[C@@H]1C2` [Example 230, 1-((1 S,4S,6S)-6-(4-((4-([1,2,4]triazolo[1,5-a]pyridin-7-yloxy)-3-chloro-2-fluorophenyl)amino)pyrido[3,2-d]pyrimidin-6-yl)-2-azabicyclo[2.2.1]heptan-2-yl)prop-2-en-1-one], the pIC50 against EGFR (EGFR enzyme) was 6.51; in data set [1] (ErbB2 YVMA phosphorylation) it was 7.67; on EGFR wild type (EGFR WT) (setting [2]) it was 6.00; on ErbB2 WT (ErbB2 WT enzyme) it was 7.87. The efflux ratio at 2 h, 1 µM at BCRP is 2.7; at MDR1 (P-gp), 0.8.

Turning to `C=CC(=O)N1C[C@H]2C[C@@H]1[C@H](c1ccc3ncnc(Nc4cc(C)c(Oc5cnc6c(c5)ncn6C)cc4F)c3n1)C2` [Example 416], the pIC50 was 5.57 against EGFR (EGFR enzyme assay), 7.44 in data set [1] (setting [3]), at most 5.30 against EGFR wild type (EGFR WT) (setting [4]) and 7.10 on ErbB2 WT (ErbB2 WT enzyme assay). Further, the efflux ratio at 2 h, 1 µM at BCRP worked out at 2; on MDR1 (P-gp), 0.9.

For `C=CC(=O)N1CCC(Oc2ccc3ncnc(Nc4ccc(Oc5ccn6ncnc6c5)c(Cl)c4F)c3n2)CC1` [Example 13, 1-(4-((4-((4-([1,2,4]triazolo[1,5-a]pyridin-7-yloxy)-3-chloro-2-fluorophenyl)amino)pyrido[3,2-d]pyrimidin-6-yl)oxy)piperidin-1-yl)prop-2-en-1-one], the pIC50 is 6.66 against EGFR (EGFR enzyme), 8.40 in data set [1] (ErbB2 YVMA phosphorylation), 6.98 against EGFR wild type (EGFR WT) (setting [2]) and 8.08 at ErbB2 WT (ErbB2 WT enzyme). In addition, the efflux ratio at 2 h, 1 µM was 1.4 on BCRP and 1.2 on MDR1 (P-gp).

As to `C=CC(=O)N1CC[C@H]2C[C@H](c3ccc4ncnc(Nc5cc(C)c(Oc6ccn7ncnc7c6)cc5F)c4n3)C[C@H]21` (racemic) [Example 205, rac-1-((3aR,5S,6aR)-5-(4-((4-([1,2,4]triazolo[1,5-a]pyridin-7-yloxy)-2-fluoro-5-methylphenyl)amino)pyrido[3,2-d]pyrimidin-6-yl)hexahydrocyclopenta[b]pyrrol-1(2H)-yl)prop-2-en-1-one], the negative-log IC50 (pIC50) against EGFR (EGFR enzyme) is 5.62; in data set [1] (ErbB2 YVMA phosphorylation), 7.62; against EGFR wild type (EGFR WT) (setting [2]), 5.59; at ErbB2 WT (ErbB2 WT enzyme) it was 7.23. Further, the efflux ratio at 2 h, 1 µM was determined as 4.5 on BCRP and 1.2 at MDR1 (P-gp).

With `C=CC(=O)N1CCCC(c2ccc3ncnc(Nc4ccc(Oc5cnc6c(c5)ncn6C)c(C)c4)c3n2)CC1` (stereo not drawn) [Example 403], the pIC50 against EGFR (EGFR enzyme assay) is 5.89; in data set [1] (setting [3]), 7.87; against EGFR wild type (EGFR WT) (setting [4]) it was at most 5.30; against ErbB2 WT (ErbB2 WT enzyme assay) it was 7.21. Further, the figures for the efflux ratio at 2 h, 1 µM at BCRP and on MDR1 (P-gp) were 4 and 2, respectively.

For the compound `C=CC(=O)N1CC[C@@H]2C[C@H](c3ccc4ncnc(Nc5cc(C)c(Oc6ccn7ncnc7c6)cc5F)c4n3)C[C@@H]21` (single isomer, unassigned) [Example 225], the pIC50 against EGFR (EGFR enzyme) is 6.37; in data set [1] (ErbB2 YVMA phosphorylation), 8.08; on EGFR wild type (EGFR WT) (setting [2]), 6.11; against ErbB2 WT (ErbB2 WT enzyme) it was 7.58. The efflux ratio at 2 h, 1 µM was found to be 2 on BCRP and 1.2 at MDR1 (P-gp).

Regarding `C=CC(=O)N1C[C@H]2CC[C@@H]1CN2c1ccc2ncnc(Nc3ccc(Oc4ccn5ncnc5c4)c(C)c3F)c2n1` [Example 175, 1-((1R,4R)-5-(4-((4-([1,2,4]triazolo[1,5-a]pyridin-7-yloxy)-2-fluoro-3-methylphenyl)amino)pyrido[3,2-d]pyrimidin-6-yl)-2,5-diazabicyclo[2.2.2]octan-2-yl)prop-2-en-1-one], the pIC50 was 5.27 at EGFR (EGFR enzyme), 7.65 in data set [1] (ErbB2 YVMA phosphorylation), 5.62 against EGFR wild type (EGFR WT) (setting [2]) and 6.77 at ErbB2 WT (ErbB2 WT enzyme). Moreover, the efflux ratio at 2 h, 1 µM at BCRP was 4.8; on MDR1 (P-gp), 3.3.

`C=CC(=O)N1C[C@H]2CC[C@@H]1[C@H](c1ccc3ncnc(Nc4ccc(Oc5cnc6c(c5)ncn6C)c(C)c4F)c3n1)C2` [Example 426]: the pIC50 on EGFR (EGFR enzyme assay) is at most 5.00; in data set [1] (setting [3]) it was 7.48; at EGFR wild type (EGFR WT) (setting [4]), at most 5.30; at ErbB2 WT (ErbB2 WT enzyme assay) it was 6.74. Further, the efflux ratio at 2 h, 1 µM turned out to be 2 on BCRP and 0.7 on MDR1 (P-gp).

For the compound `C=CC(=O)N1CC2(C1)CN(c1ccc3ncnc(Nc4ccc(Oc5ccn6ncnc6c5)c(Cl)c4F)c3n1)C2` [Example 101, 1-(6-(4-((4-([1,2,4]triazolo[1,5-a]pyridin-7-yloxy)-3-chloro-2-fluorophenyl)amino)pyrido[3,2-d]pyrimidin-6-yl)-2,6-diazaspiro[3.3]heptan-2-yl)prop-2-en-1-one], the pIC50 is 5.86 at EGFR (EGFR enzyme), 7.49 in data set [1] (ErbB2 YVMA phosphorylation), at most 5.30 at EGFR wild type (EGFR WT) (setting [2]) and 7.41 against ErbB2 WT (ErbB2 WT enzyme). For the same compound, the efflux ratio at 2 h, 1 µM was determined as 2.5 on BCRP and 1.9 on MDR1 (P-gp).

As to `C=CC(=O)N1[C@@H]2CC[C@H]1[C@H](c1ccc3ncnc(Nc4ccc(Oc5ccn6ncnc6c5)c(C)c4F)c3n1)C2` (racemic) [Example 213, rac-1-((1 S,2R,4R)-2-(4-((4-([1,2,4]triazolo[1,5-a]pyridin-7-yloxy)-2-fluoro-3-methylphenyl)amino)pyrido[3,2-d]pyrimidin-6-yl)-7-azabicyclo[2.2.1]heptan-7-yl)prop-2-en-1-one], the pIC50 on EGFR (EGFR enzyme) is 6.58; in data set [1] (ErbB2 YVMA phosphorylation) it was 7.62; at EGFR wild type (EGFR WT) (setting [2]), at most 5.30; against ErbB2 WT (ErbB2 WT enzyme), 8.14. The efflux ratio at 2 h, 1 µM came to 3.4 on BCRP and 1.5 at MDR1 (P-gp).

In the case of `C=CC(=O)N1[C@H]2CC[C@@H]1[C@@H](c1ccc3ncnc(Nc4ccc(Oc5ccn6ncnc6c5)c(C)c4F)c3n1)C2` (single isomer, unassigned) [Example 229], the pIC50 against EGFR (EGFR enzyme) was 6.42; in data set [1] (ErbB2 YVMA phosphorylation), 7.52; against EGFR wild type (EGFR WT) (setting [2]), at most 5.30; against ErbB2 WT (ErbB2 WT enzyme), 7.78. The efflux ratio at 2 h, 1 µM came to 3 on BCRP and 0.7 at MDR1 (P-gp).

On to `C=CC(=O)N1C[C@@H]2C[C@H]1CN(c1ccc3ncnc(Nc4ccc(Oc5ccn6ncnc6c5)c(C)c4F)c3n1)C2` [Example 251], for which the pIC50 against EGFR (EGFR enzyme assay) is at most 5.00; in data set [1] (setting [3]), 7.56; against EGFR wild type (EGFR WT) (setting [4]), at most 5.30; against ErbB2 WT (ErbB2 WT enzyme assay), 6.31. Further, the efflux ratio at 2 h, 1 µM came to 4.8 at BCRP and 1.5 at MDR1 (P-gp).
